Each structure is given as a SMILES string.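 Protocol summary: plate cells (96-well), add compound at 5 concentrations, incubate 48 h, interpolate endpoints linearly. GI50 is the concentration that inhibits growth by half. At the TGI there is no net growth.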 Some results are limits rather than exact numbers.

Some test systems named below: SN12K1 renal; P388/ADR leukemia; M19-MEL melanoma; XF 498 CNS; HOP-18 NSCLC; DMS 273 small cell lung; P388 leukemia; SNB-78 CNS; LXFL 529 NSCLC; RXF-631 renal.
What all share (assay): NCI tumour cell line growth inhibition, 48 h

For `CNC(=O)OCc1c(CO)nc(SC)n1C`, the TGI in the assay with SN12K1 renal, in the assay with P388/ADR leukemia, with M19-MEL melanoma, with XF 498 CNS, in the assay with HOP-18 NSCLC and with DMS 273 small cell lung was above 100 µM in each case. The TGI with P388 leukemia is above 100 µM.
Take `COc1cc2c(ccc3c4cc(OC)c(OC)cc4c[n+](C)c23)cc1O`: the TGI in the assay with SN12K1 renal was 14 µM; with P388/ADR leukemia it was above 75 µM; in the assay with M19-MEL melanoma, above 75 µM; in the assay on XF 498 CNS, 19.2 µM; in the assay with SNB-78 CNS it was above 75 µM; in the assay on HOP-18 NSCLC it was above 75 µM. Also, the TGI was above 75 µM with DMS 273 small cell lung and 5.21 µM in the assay on P388 leukemia.
Take `O=C(OCN1C(=O)C2C3C=CC(C2C1=O)C1C2C(=O)N(COC(=O)C4CCCN4)C(=O)C2C31)C1CCCN1` (centres undefined): the TGI with LXFL 529 NSCLC, with M19-MEL melanoma, with XF 498 CNS, in the assay with SNB-78 CNS, with HOP-18 NSCLC and in the assay on RXF-631 renal was above 100 µM throughout. Also, the TGI in the assay with DMS 273 small cell lung is above 56.4 µM.
`[N-]=[N+]=CC(=O)c1ccccc1C#CCCc1ccccc1`: the TGI with XF 498 CNS is 41.3 µM; with HOP-18 NSCLC, above 100 µM; in the assay with DMS 273 small cell lung it was 73.7 µM.
For the molecule `CCCCCCCCC/C=C/C=C/C(=O)NCC(=O)NC1C(O)C(O)C(Nc2ncnc3nc[nH]c23)OC1C(O)CO` (centres undefined), the GI50 in the assay on LXFL 529 NSCLC was 46.7 nM. This molecule also yielded a TGI with M19-MEL melanoma of 0.0253 µM.
In the case of `CN(C)CC(CC1=C(CC(CN(C)C)N(C)C)CCC1)N(C)C` (centres undefined), the TGI with SN12K1 renal, in the assay on P388/ADR leukemia, with M19-MEL melanoma, with XF 498 CNS, in the assay with HOP-18 NSCLC and in the assay with DMS 273 small cell lung was above 100 µM each time. Moreover, the TGI with P388 leukemia is above 100 µM.

Source of the values: PubChem BioAssay (NCI).
